The supplement of paper PMC13207355

What was measured:
Settings in all cases: exposure time: 72 h
E21 [1] = patient-derived glioblastoma stem cells of mesenchymal subtype; experiment: surviving fraction (nuclei count normalised to DMSO); higher = more cells surviving (less toxic)
E34 [2] = patient-derived glioblastoma stem cells of proneural subtype; experiment: as above
E28 [3] = patient-derived glioblastoma stem cells of classical subtype; experiment: as above
E57 [4] = patient-derived glioblastoma stem cells of mesenchymal subtype; experiment: as above
FT3469 [5] = normal neural stem cell line; experiment: as above
E13 [6] = patient-derived glioblastoma stem cells of classical subtype; experiment: as above
E31 [7] = patient-derived glioblastoma stem cells of proneural subtype; experiment: as above
E21 [8] = experiment: phenotypic distance (Euclidean, principal components) from DMSO controls (arbitrary units); higher = stronger morphological change
E34 [9] = experiment: as above
E28 [10] = experiment: as above
E57 [11] = experiment: as above
FT3469 [12] = experiment: as above
E13 [13] = experiment: as above
E31 [14] = experiment: as above
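For phenotypic distance (Euclidean, principal components) from DMSO controls in this document: cell Painting imaging in 384-well plates, CellProfiler features reduced to at least 20 principal components, Euclidean distance versus same-plate DMSO vehicle wells (0.1% v/v), median over six images per well.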
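For surviving fraction (nuclei count normalised to DMSO) in this document: nuclei counted by high-content imaging of Hoechst-stained cells in laminin-coated 384-well plates, relative to 0.1% DMSO vehicle wells, with staurosporine as cell-death control.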

C[C@H]1Oc2cc(cnc2N)-c2c(nn(C)c2C#N)CN(C)C(=O)c2ccc(F)cc21 [Lorlatinib]
Settings | phenotypic distance | surviving fraction
E13 [6], 4.1 nM | – | 1.03
E13 [6], 12.3 nM | – | 0.961
E13 [6], 37 nM | – | 1.08
E13 [6], 111.1 nM | – | 1.08
E13 [6], 333.3 nM | – | 1.11
E13 [6], 1000 nM | – | 1
E13 [6], 3000 nM | – | 1.01
E13 [13], 4.1 nM | 0.964 | –
E13 [13], 12.3 nM | 0.749 | –
E13 [13], 37 nM | 1.19 | –
E13 [13], 111.1 nM | 0.958 | –
E13 [13], 333.3 nM | 0.954 | –
E13 [13], 1000 nM | 1.09 | –
E13 [13], 3000 nM | 0.943 | –
E21 [1], 4.1 nM | – | 0.887
E21 [1], 12.3 nM | – | 0.918
E21 [1], 37 nM | – | 0.876
E21 [1], 111.1 nM | – | 0.918
E21 [1], 333.3 nM | – | 0.862
E21 [1], 1000 nM | – | 0.924
E21 [1], 3000 nM | – | 0.768
E21 [8], 4.1 nM | 0.926 | –
E21 [8], 12.3 nM | 2.32 | –
E21 [8], 37 nM | 1.09 | –
E21 [8], 111.1 nM | 0.89 | –
E21 [8], 333.3 nM | 1.37 | –
E21 [8], 1000 nM | 1.41 | –
E21 [8], 3000 nM | 1.96 | –
E28 [3], 4.1 nM | – | 1.11
E28 [3], 12.3 nM | – | 1.02
E28 [3], 37 nM | – | 1.05
E28 [3], 111.1 nM | – | 0.843
E28 [3], 333.3 nM | – | 0.913
E28 [3], 1000 nM | – | 1.07
E28 [3], 3000 nM | – | 0.911
E28 [10], 4.1 nM | 1.06 | –
E28 [10], 12.3 nM | 0.784 | –
E28 [10], 37 nM | 1.27 | –
E28 [10], 111.1 nM | 1.47 | –
E28 [10], 333.3 nM | 1.29 | –
E28 [10], 1000 nM | 1.31 | –
E28 [10], 3000 nM | 1.79 | –
E31 [7], 4.1 nM | – | 1.23
E31 [7], 12.3 nM | – | 0.867
E31 [7], 37 nM | – | 1.06
E31 [7], 111.1 nM | – | 0.986
E31 [7], 333.3 nM | – | 1.17
E31 [7], 1000 nM | – | 1.08
E31 [7], 3000 nM | – | 1.01
E31 [14], 4.1 nM | 0.873 | –
E31 [14], 12.3 nM | 1.38 | –
E31 [14], 37 nM | 2.47 | –
E31 [14], 111.1 nM | 0.874 | –
E31 [14], 333.3 nM | 1.08 | –
E31 [14], 1000 nM | 1.32 | –
E31 [14], 3000 nM | 1.4 | –
E34 [2], 4.1 nM | – | 1.02
E34 [2], 12.3 nM | – | 0.994
E34 [2], 37 nM | – | 0.939
E34 [2], 111.1 nM | – | 1.09
E34 [2], 333.3 nM | – | 0.999
E34 [2], 1000 nM | – | 1.1
E34 [2], 3000 nM | – | 0.792
E34 [9], 4.1 nM | 0.575 | –
E34 [9], 12.3 nM | 0.814 | –
E34 [9], 37 nM | 1.28 | –
E34 [9], 111.1 nM | 0.761 | –
E34 [9], 333.3 nM | 1.2 | –
E34 [9], 1000 nM | 0.726 | –
E34 [9], 3000 nM | 1.84 | –
E57 [4], 4.1 nM | – | 0.87
E57 [4], 12.3 nM | – | 0.808
E57 [4], 37 nM | – | 0.891
E57 [4], 111.1 nM | – | 0.816
E57 [4], 333.3 nM | – | 0.815
E57 [4], 1000 nM | – | 0.794
E57 [4], 3000 nM | – | 0.757
E57 [11], 4.1 nM | 2.11 | –
E57 [11], 12.3 nM | 3.34 | –
E57 [11], 37 nM | 2.79 | –
E57 [11], 111.1 nM | 3.21 | –
E57 [11], 333.3 nM | 2.46 | –
E57 [11], 1000 nM | 2.74 | –
E57 [11], 3000 nM | 2.66 | –
FT3469 [5], 4.1 nM | – | 0.89
FT3469 [5], 12.3 nM | – | 1.1
FT3469 [5], 37 nM | – | 0.999
FT3469 [5], 111.1 nM | – | 0.981
FT3469 [5], 333.3 nM | – | 1.03
FT3469 [5], 1000 nM | – | 1.06
FT3469 [5], 3000 nM | – | 0.834
FT3469 [12], 4.1 nM | 1.48 | –
FT3469 [12], 12.3 nM | 0.861 | –
FT3469 [12], 37 nM | 1.31 | –
FT3469 [12], 111.1 nM | 0.981 | –
FT3469 [12], 333.3 nM | 1.15 | –
FT3469 [12], 1000 nM | 0.901 | –
FT3469 [12], 3000 nM | 1.54 | –

COc1c(N2CCNC(C)C2)c(F)cc2c(=O)c(C(=O)O)cn(C3CC3)c12 (stereo unspecified) [Gatifloxacin]
Settings | phenotypic distance | surviving fraction
E13 [6], 4.1 nM | – | 0.802
E13 [6], 12.3 nM | – | 0.892
E13 [6], 37 nM | – | 0.946
E13 [6], 111.1 nM | – | 0.909
E13 [6], 333.3 nM | – | 1.06
E13 [6], 1000 nM | – | 0.806
E13 [6], 3000 nM | – | 0.89
E13 [13], 4.1 nM | 0.675 | –
E13 [13], 12.3 nM | 0.638 | –
E13 [13], 37 nM | 0.734 | –
E13 [13], 111.1 nM | 0.5 | –
E13 [13], 333.3 nM | 0.838 | –
E13 [13], 1000 nM | 0.825 | –
E13 [13], 3000 nM | 0.702 | –
E21 [1], 4.1 nM | – | 0.949
E21 [1], 12.3 nM | – | 0.874
E21 [1], 37 nM | – | 0.875
E21 [1], 111.1 nM | – | 0.802
E21 [1], 333.3 nM | – | 0.988
E21 [1], 1000 nM | – | 0.814
E21 [1], 3000 nM | – | 0.929
E21 [8], 4.1 nM | 1 | –
E21 [8], 12.3 nM | 0.609 | –
E21 [8], 37 nM | 0.741 | –
E21 [8], 111.1 nM | 0.873 | –
E21 [8], 333.3 nM | 0.581 | –
E21 [8], 1000 nM | 1 | –
E21 [8], 3000 nM | 0.84 | –
E28 [3], 4.1 nM | – | 0.883
E28 [3], 12.3 nM | – | 0.852
E28 [3], 37 nM | – | 0.951
E28 [3], 111.1 nM | – | 0.859
E28 [3], 333.3 nM | – | 0.769
E28 [3], 1000 nM | – | 0.982
E28 [3], 3000 nM | – | 1.01
E28 [10], 4.1 nM | 0.347 | –
E28 [10], 12.3 nM | 0.661 | –
E28 [10], 37 nM | 0.66 | –
E28 [10], 111.1 nM | 0.527 | –
E28 [10], 333.3 nM | 0.675 | –
E28 [10], 1000 nM | 0.514 | –
E28 [10], 3000 nM | 0.819 | –
E31 [7], 4.1 nM | – | 1.03
E31 [7], 12.3 nM | – | 0.99
E31 [7], 37 nM | – | 0.946
E31 [7], 111.1 nM | – | 0.898
E31 [7], 333.3 nM | – | 1.01
E31 [7], 1000 nM | – | 1.04
E31 [7], 3000 nM | – | 1.24
E31 [14], 4.1 nM | 0.659 | –
E31 [14], 12.3 nM | 2.43 | –
E31 [14], 37 nM | 0.809 | –
E31 [14], 111.1 nM | 0.741 | –
E31 [14], 333.3 nM | 0.52 | –
E31 [14], 1000 nM | 0.474 | –
E31 [14], 3000 nM | 0.691 | –
E34 [2], 4.1 nM | – | 0.932
E34 [2], 12.3 nM | – | 0.945
E34 [2], 37 nM | – | 1.06
E34 [2], 111.1 nM | – | 0.967
E34 [2], 333.3 nM | – | 1.09
E34 [2], 1000 nM | – | 0.908
E34 [2], 3000 nM | – | 0.955
E34 [9], 4.1 nM | 0.671 | –
E34 [9], 12.3 nM | 0.619 | –
E34 [9], 37 nM | 0.973 | –
E34 [9], 111.1 nM | 0.498 | –
E34 [9], 333.3 nM | 0.426 | –
E34 [9], 1000 nM | 0.62 | –
E34 [9], 3000 nM | 0.52 | –
E57 [4], 4.1 nM | – | 0.966
E57 [4], 12.3 nM | – | 1.04
E57 [4], 37 nM | – | 0.993
E57 [4], 111.1 nM | – | 1.05
E57 [4], 333.3 nM | – | 1.06
E57 [4], 1000 nM | – | 1.05
E57 [4], 3000 nM | – | 1.05
E57 [11], 4.1 nM | 0.413 | –
E57 [11], 12.3 nM | 0.404 | –
E57 [11], 37 nM | 0.488 | –
E57 [11], 111.1 nM | 0.447 | –
E57 [11], 333.3 nM | 0.584 | –
E57 [11], 1000 nM | 0.465 | –
E57 [11], 3000 nM | 0.475 | –
FT3469 [5], 4.1 nM | – | 0.737
FT3469 [5], 12.3 nM | – | 0.928
FT3469 [5], 37 nM | – | 0.867
FT3469 [5], 111.1 nM | – | 0.774
FT3469 [5], 333.3 nM | – | 0.957
FT3469 [5], 1000 nM | – | 0.995
FT3469 [5], 3000 nM | – | 0.79
FT3469 [12], 4.1 nM | 1.03 | –
FT3469 [12], 12.3 nM | 0.624 | –
FT3469 [12], 37 nM | 0.658 | –
FT3469 [12], 111.1 nM | 0.568 | –
FT3469 [12], 333.3 nM | 0.713 | –
FT3469 [12], 1000 nM | 0.561 | –
FT3469 [12], 3000 nM | 1.24 | –
